Assay: Human HepG2 cell viability assay in 384 well format
Format: toxicity, cell-based
Design: dose 125 nL, time 70.5 hour; concentration not given beside the values
Conditions: HepG2 cells, read-out: Inhibition

Row | SMILES | cytotoxicity at 70.5 h [%]
1 | CCC1CCCCN1C(=O)c1ccc2[nH]nnc2c1 (configuration not stated) | -2.33
2 | O=S(=O)(NCCn1cc(C2CCCNC2)nn1)c1ccc(Cl)cc1 (configuration not stated) | -9.08
3 | NC(=O)c1cnc(NC2CC2)nc1CCNC(=O)Cc1ccccc1 | -5.85
4 | CN(Cc1cnn(C)c1)C(=O)c1ccc(=O)n(C)n1 | -1.81
5 | CCN(C)Cc1cnc(S(=O)(=O)CC)n1CCOC | -3.96
6 | Cc1nc(COC[C@@H]2CC[C@H]3[C@H](CCN3S(C)(=O)=O)O2)cs1 | -11.7
7 | Cc1nc(CN2Cc3nccn3CC(COCC3CC3)C2)cs1 (configuration not stated) | -0.0625
8 | CC(c1cccc(Cl)c1)N(C)Cc1nc2c(cnn2C)c(=O)[nH]1 (configuration not stated) | -1.63
9 | Oc1cccc(CNCc2ccc(-n3cncn3)nc2)c1 | 0.561
10 | CCN1CCC2(COCc3c(C)nc(N(C)C)nc32)C1 (configuration not stated) | -8.16
11 | CN(Cc1nc(N)c2ccccc2n1)C1CCCN(c2cccnn2)C1 (configuration not stated) | -5.77
12 | CN(C)C(=O)COCC1CN(C2CCC2)Cc2ncn(C)c21 (configuration not stated) | 22.5
13 | CCS(=O)(=O)N1CC[C@@H]2[C@@H](CCC(=O)N2CCc2ccccc2)C1 | 1.58
14 | CCn1cnnc1CNS(=O)(=O)N1CCCC1c1ccc(C)o1 (configuration not stated) | -4.31
15 | O=C(O)c1csc(NCCc2ccccc2)n1 | -1.2
16 | O=C(NCc1ccccn1)[C@]12COC[C@H]1CN(Cc1cccnc1)C2 | -7.77
17 | CCN1CC(C(=O)NCCc2csc(-c3ccncc3)n2)CCC1=O (configuration not stated) | -5.21
18 | CC(C)(C)c1nnc(NCc2ccc(F)cc2)o1 | -2.71
19 | COc1ccc(OC)c(C2SCC(=O)Nc3n[nH]cc32)c1 (configuration not stated) | -9.28
20 | CCN(CC)c1nc(O)cc(C(C)n2ncc3ccccc3c2=O)n1 (configuration not stated) | -4.03
21 | Cc1cnn(CCNc2cnc3ccccc3n2)c1 | -1.2
22 | Cc1nc(CN2CCCC(N(C)Cc3nccn3C)C2)no1 (configuration not stated) | 21.6
23 | Cc1cc(C)n(-c2cccc(NC(=O)N3CCC[C@@H]3CO)c2)n1 | -16

Row | SMILES | cytotoxicity at 70.5 h [%]
24 | Cc1ccc(C(=O)N2C[C@@H]3CC[C@H](C2)N(Cc2ccccc2)C3)cn1 | 17.8
25 | CC(C)NC(=O)CNC(C)c1c(F)cccc1Cl (configuration not stated) | -79.9
26 | Cc1csc(N2CCN(CC(=O)N3CCCC3)CC2C)n1 (configuration not stated) | 1.56
27 | Cc1ccccc1CN1CCC(CNC(=O)Cn2cncn2)CC1 | 13.8
28 | CN1CC2(CCN(C(=O)Cc3ccc(O)c(F)c3)CC2)CC1=O | 10.1
29 | Cc1oc(-c2ccoc2)nc1CN1CCCCC1CCn1cccn1 (configuration not stated) | -3.32
30 | COCCC(=O)NCCc1nc(N(C)C)ncc1-c1ccncc1 | -3.62
31 | CC(=O)N1CCC2(CCCN(C(=O)CCN3CCCCC3)C2)C1 (configuration not stated) | 20.2
32 | Cc1nnc([C@@H]2CC[C@@H]3[C@@H](CCN3S(C)(=O)=O)O2)o1 | -10.9
33 | CC(C)(C)C(=O)N1CCC2(CC1)CC(Oc1ccccc1)CO2 (configuration not stated) | 11.5
34 | CC[C@H](CO)NC(=O)c1coc(COc2ccccc2F)n1 | 2.14
35 | CC(=O)N1CC2(CCN(C(=O)CO)CC2)c2cc(C)ccc21 | -4.93
36 | COCCc1noc(Cn2ccc3ncccc3c2=O)n1 | -7.6
37 | CCCNC(=O)C(C)Nc1ccn(Cc2ccccn2)n1 (configuration not stated) | 1.09
38 | CCn1c(CN(C)C)nnc1C1CCN(c2nccc(NC)n2)CC1 | -2.22
39 | Cn1cc(CNC2CCCN(Cc3noc(C4CC4)n3)C2)cn1 (configuration not stated) | 3.36
40 | CCc1ccc(C(COC)NC(=O)c2ccsc2)o1 (configuration not stated) | -3.72
41 | COc1ccc2nnc(CCC(=O)Nc3nc4c(s3)CCC4)n2n1 | -25.1
42 | CCN1CCOC(CNCc2ccccc2OCc2ccccn2)C1 (configuration not stated) | 1.15
43 | COc1cc2nc(C)sc2cc1NC(=O)CN(C)C(C)C | 4.08
44 | NC(=O)CCSCc1ccc(Br)c(F)c1 | -8.58
45 | CC(C)c1noc(CN2CCOCC2C)n1 (configuration not stated) | -4.78
46 | Cc1nc(CN2CCO[C@@H]3CN(C(=O)NC(C)C)CC[C@@H]3C2)cs1 | -6.02

Row | SMILES | cytotoxicity at 70.5 h [%]
47 | Cc1nc(N)sc1C(=O)N1CCCC(c2nccn2CCCN(C)C)C1 (configuration not stated) | -5.45
48 | NC(=O)C(Cc1ccccc1)NS(=O)(=O)Cc1ccccc1Cl (configuration not stated) | 7.03
49 | Cc1nc(-c2cccc(C(=O)N(C)CC(C)O)c2)cs1 (configuration not stated) | 0.422
50 | N#Cc1cccc(CN2CCN(Cc3cscn3)CC2)c1 | -10
51 | Cc1nc(NCCc2noc(C3CCCO3)n2)c2sccc2n1 (configuration not stated) | 49.7
52 | CCc1ncc2c(n1)CN(C(C)C(=O)N1CCOCC1)CC2 (configuration not stated) | 17
53 | CCCC(C)NCc1cccnc1N1CCN(c2ccccn2)CC1 (configuration not stated) | -5.62
54 | COc1cccc(C(C)N2CCN(S(=O)(=O)CCCF)CC2)c1 (configuration not stated) | 34.9
55 | CN(C(=O)C1CCC1)C1CCN(c2ccccc2Cl)C1=O (configuration not stated) | -26.5
56 | Cc1scc(C(=O)N2CCC3(CCCN(C)C3=O)C2)c1-c1ccccc1 (configuration not stated) | -11.2
57 | CN(C)C(=O)CC1CC2(CCN(Cc3ccsc3)CC2)c2ccccc21 (configuration not stated) | -16.8
58 | O=C(N1CCOCC1)N1CC[C@H]2[C@@H]1CCC(=O)N2c1ccccc1 | -1.24
59 | Cc1cncc(C(=O)N2CCO[C@H]3[C@H](Oc4ccccn4)CC[C@@H]32)c1 | -12.4
60 | CS(=O)(=O)Cc1ccc(CNc2ncc(C#N)cc2Cl)cc1 | 1.58
61 | CCOC1CCCN(C(=O)c2ccccc2NCc2cccnc2)C1 (configuration not stated) | 15.9
62 | Cc1occc1C(=O)N1CCC[C@]2(C[C@@H](OCc3ccncc3)CO2)C1 | 6.49
63 | N#Cc1ccc(F)c(CNC(=O)NCCC(=O)NC2CCCC2)c1 | -3.12
64 | Cc1nn(C)c2nc(N3CCC(C(O)Cc4ccccc4)CC3)sc12 (configuration not stated) | -2.11
65 | COc1cc(N2CC[C@@H](O)[C@@H]2Cc2ccccc2)ncn1 | -5.14
66 | O=C(Cc1ccc(F)cc1Cl)N[C@@H]1CCNC[C@H]1O | -6
67 | CC(C)Cc1cc(C(=O)NCc2nnc[nH]2)[nH]n1 | -13.4
68 | O=C(NCCN1CCCC(CO)C1)c1ccc2sccc2c1 (configuration not stated) | -6.22
69 | Cn1cnc2c1CCN(CCOc1ccc(C#N)cc1)C2 | 1.67

Row | SMILES | cytotoxicity at 70.5 h [%]
70 | NC(=O)c1ccc(CN2C(=O)C3(CCNCC3)Nc3ccccc32)cc1 | 26.6
71 | O=C1CC[C@H]2CN(Cc3cccc(F)c3)CC[C@H]2N1CCc1c[nH]cn1 | -2.79
72 | CCc1cc(CN(C)C(=O)CN2CC(c3ccccc3)CC2=O)on1 (configuration not stated) | 3.32
73 | CN(C)C(=O)Cc1nc(CN2CCCCC2Cn2cncn2)cs1 (configuration not stated) | 23.2
74 | CC[C@@H](CO)NC(=O)c1cc(COc2ccc(OC)cc2Cl)[nH]n1 | -3.92
75 | COC[C@@]12CCC[C@@H]1CN(C(=O)Cc1ccccn1)C2 | 9.13
76 | Fc1ccc2[nH]c([C@H]3CCN(C4CCOCC4)C3)nc2c1 | 4.63
77 | CC(C)N(Cc1cnn(C)c1)C(=O)c1ccnc(N(C)C)c1 | -7.21
78 | Cc1cccc(CN2CCC(c3nnc(-c4scnc4C)o3)CC2)c1 | 0.33
79 | CC(=O)N1CCC2(CC1)CN(C(=O)c1cccc3[nH]ccc13)CCO2 | 27.3
80 | O=c1n(Cc2ncccn2)nc(C2CCNCC2)n1-c1ccccc1 | -2.01
81 | CS(=O)(=O)CCN1C[C@H](NC(=O)c2cnc(O)cn2)[C@@H](C2CC2)C1 | 11.1
82 | O=C1CC(c2ccncc2)C2(CCN(Cc3cccnc3)CC2)N1 (configuration not stated) | -6.24
83 | CC(C)C(=O)N1CCCC(Cc2cccnc2)C1 (configuration not stated) | -0.448
84 | Cc1ccc2c(c1)OC(C)CN2C(=O)Cc1ccc(C)nc1 (configuration not stated) | -0.93
85 | Cc1nnc(NC(=O)CN2CCOC(Cn3cccn3)C2)s1 (configuration not stated) | -6.17
86 | Cc1cc(C(=O)N2CCc3nnc(N)cc3C2)c(C)n1C1CC1 | -12.1
87 | CS(=O)(=O)N1CCC(c2nc3ccc(-c4cccc(F)c4)cn3n2)CC1 | -5.73
88 | OCCOc1ccc(NCc2cccc3cn[nH]c23)cn1 | 0.12
89 | CN(Cc1ccsc1)C(=O)c1nc(N2CCCCC2)ncc1Cl | -14.3
90 | O=S(=O)(C1CC1)N1C[C@@H]2CN(Cc3ccoc3)CCO[C@@H]2C1 | -15.4
91 | O=c1cc(Cn2cncn2)nc2n1CCCN(Cc1ccco1)C2 | -3.55
92 | CN(C)C(=O)Cc1nc(CN2CCCC2Cn2cncn2)cs1 (configuration not stated) | -10.9

Row | SMILES | cytotoxicity at 70.5 h [%]
93 | CCc1nc(C2CCCN2C(=O)CCc2nc(C(C)(C)C)no2)no1 (configuration not stated) | 15.3
94 | Cc1nc2c(C#N)cnn2c(C)c1CCC(=O)N(C)C(C)C(C)C (configuration not stated) | -11.8
95 | CCCC1c2cccn2CCN1S(=O)(=O)N1CCOCC1 (configuration not stated) | -4.73
96 | Cc1cc(C)n(Cc2cccc(C(=O)NCCSCC(C)(C)O)c2)n1 | -3.16
97 | Cc1nc2c(c(NCC3Cc4ccccc4CN3C)n1)CCNCC2 (configuration not stated) | -8.03
98 | Cc1ccc(CNS(=O)(=O)CC2=NC(=O)n3cccc3C2=O)cc1 | -10.8
99 | COCCN1CC[C@]2(CN(C(=O)c3ccc[nH]3)C[C@H]2C)C1=O | -7.41
100 | O=C(O)CNc1cc(-c2cc(C(=O)NC3CC3)ccn2)c2cc[nH]c2n1 | -0.0958
101 | O=C1CN(S(=O)(=O)CC(F)(F)F)CC(O)CN1CCCc1ccccc1 (configuration not stated) | -3.16
102 | COc1nccnc1N1CCN(Cc2cccc(C)c2)C(=O)C1 | 7
103 | COc1cc(CNC(=O)Nc2nnc(C(F)(F)F)s2)ccc1O | 2.56
104 | Cc1cccc(-c2ccc(C(=O)NCCN(C)C3CC3)c(=O)[nH]2)c1 | -34.3
105 | CN(C)S(=O)(=O)N1C[C@H](Oc2cccnc2)[C@H]2OCCC[C@H]21 | 31.1
106 | O=C(Cc1ccsc1)N1C[C@@H]2CN(Cc3ccoc3)CCO[C@@H]2C1 | -11.4
107 | Cc1nc2cc(-c3nccn3C)nn2c(N2CCCC2)c1C | -0.486
108 | C[C@@H]1CN(S(=O)(=O)c2ccc(F)cc2F)C[C@]1(C)O | -1.56
109 | O=C(c1ccc(=O)[nH]n1)N1CC(c2nc(Cc3ccccc3)no2)C1 | -0.421
110 | COc1c(C2CCCN2CC(=O)Nc2cc(C)on2)c(C)nn1C (configuration not stated) | 12.2
111 | CS(=O)(=O)CC(=O)N1C[C@H]2CCC[C@@]2(COCc2ccccn2)C1 | -19.8
112 | O=S(=O)(NCC1(O)CCOc2ccccc21)c1ccc(Br)s1 (configuration not stated) | 3.29

Source: ChEMBL document CHEMBL3507680, “University of Dundee, Gates Library screen for HepG2 cell viability”
